Key:
[1] = system: human cord-blood CD34+ cells; assay: Human hematopoietic engraftment in male NSG mice transplanted with 5×10^4 human cord-blood CD34+ cells; format: in vivo, mouse
Description: Three-four months later, the animals were sacrificed and the human hematopoietic engraftment was analyzed by FACS. Human hematopoietic population was identified as the cells positive for hCD45-APC-Cy7 (Biolegend) and negative for mouse CD45.1-PE (Biolegend). In order to further examine the effect of the estrogen in HSCT, hematopoietic progenitors (hCD34+) and hematopoietic stem cells (hCD34+/hCD38−) were analyzed by FACS inside of the human population in the treated NSG described in Example 1.

[2] = relative to other estrogens; cited from earlier work
[3] = system: human hematopoietic progenitors (CB-CD34+); assay: LTC-IC human bone marrow-like co-culture (hMSC + hCD34+) and CFU assay; format: cell-based
Description: LTC-IC was established through the co-culture of human bone marrow Mesenchymal Stromal Cells (BM-MSC) and human progenitors (CB-CD34+) to research the positive effects of the estrogens in a human context, such as an in vitro human bone marrow model. LTC-ICs were treated with vehicle or 100 µM of E2 or E4 for a week. […] Cells were plated in methycellulose media with specific hematopoietic cytokines to evaluate the hematopoietic progenitor content. After 14 days, colony forming units (CFU) were counted. Data were normalized to control groups. […] 1×10^5 human mesenchymal stromal cells (hMSC) were seeded in a p6 well and irradiated with 30 Gy next day. The following day, 5×10^4 hCD34^+ were added to the hMSC in LTC-IC media: 75% α-MEM without Phenol Red (Life Technologies), 12.5% Hyclone FBS (GE Healthcare), HS (Life Technologies), β-mercaptoethanol (Life Technologies), 0.5% PS and 1×10^−6 M Hydrocortisone (Sigma-Aldrich). 100 μM of estrogens, dissolved in ethanol, was added to the co-culture for a week, and then the cells were collected and the amount of human hematopoietic progenitors were evaluated in semisolid media supplement with specific hematopoietic cytokines (H4535, StemCell Technologies) plus 8 U/ml hEPO. After fourteen days, colony-forming units (CFU) were evaluated and normalized to the control: […]

[4] = system: human cord blood CD34+; assay: Human engraftment in female NSG mice transplanted with a limited CD34+ cell dose (5×10^3); format: in vivo, mouse; conditions: low dose 5×10^3 hCD34+, mean +/− SEM
From the text: FIG. 7A indicates human hematopoietic reconstitution after four months. […] However, in spite of this presence of endogenous estrogens, the human engraftment in female recipients was increased after E2 and more importantly after E4 treatment. FIG. 7B relates the presence of primitive hematopoietic progenitors was higher in the female mice treated with estrogens, which indicated the quality of the reconstitution. (Kruskal-Wallis test; P<0.05, 4 mice per group). […] Three-four months later, the animals were sacrificed and the human hematopoietic engraftment was analyzed by FACS. Human hematopoietic population was identified as the cells positive for hCD45-APC-Cy7 (Biolegend) and negative for mouse CD45.1-PE (Biolegend). To assess whether estrogen can improve hematopoietic reconstitution in female recipients, female NSG were irradiated and transplanted by a low doses of human cord blood CD34^+ (5×10^3 hCD34^+). The human engraftment was analyzed as described in Example 1. […] However, in spite of this presence of endogenous estrogens, the human engraftment in female recipients was increased after E2 and more importantly after E4 treatment.

## C[C@]12CC[C@@H]3c4ccc(O)cc4CC[C@H]3[C@@H]1[C@@H](O)[C@@H](O)[C@@H]2O [E4, estetrol]
[1]; hCD34+/hCD38−, male NSG, 5×10^4 CD34+, 2 μg daily for four days, mean +/− SEM
  Percentage in the human hematopoietic population: hematopoietic stem cells: 0.87 +/− 0.11 (n = 11) %
[1]; hCD34+, male NSG, 5×10^4 CD34+, 2 μg daily for four days, mean +/− SEM
  Percentage in the human hematopoietic population: hematopoietic progenitors: 13.94 +/− 0.85 (n = 11) %
[1]; male NSG, 5×10^4 CD34+, 2 μg daily for four days, three-four months later, mean +/− SEM
  Percentage of human hematopoietic reconstitution: 47.47 +/− 6.08 (n = 9) %
[1]; male NSG, 5×10^4 CD34+, 2 μg daily for four days, CD19+, mean +/− SEM
  Percentage in the human hematopoietic population: Lymphoid: 81.22 +/− 4.83 (n = 5) %
[1]; male NSG, 5×10^4 CD34+, 2 μg daily for four days, CD33+, mean +/− SEM
  Percentage in the human hematopoietic population: Myeloid: 8.24 +/− 1.65 (n = 5) %
[1]; three months post-transplant, Kruskal-Wallis P<0.05
  human hematopoietic progenitors (hCD34+) and human HSC (hCD34+CD38−) in the human engraftment, significance: statistically significant differences compared to controls and E2 treated group
[2]
  in vivo half-life: considerably longer than that of other estrogens
[3]; 100 μM estrogen for a week, CFU after fourteen days, normalized to control, mean +/− SEM
  Normalized human CFU: 1.98 +/− 0.23 (n = 6)
[3]; 100 μM for a week, versus vehicle
  total number of primitive hematopoietic progenitors in LTC-IC: almost doubled
[4]
  Percentage of hematopoietic stem cells (hCD34+/hCD38−) in the human hematopoietic population: 0.39 +/− 0.08 (n = 3) %
  Percentage of human hematopoietic reconstitution: 40.80 +/− 4.58 (n = 3) %
